Laboratory results published in patent EP0208962B1, “Combination preparations from thrombocyte aggregation inhibitors, and their use” (HOECHST AKTIENGESELLSCHAFT, priority 1985, dated 1987).
Entries after “also recorded” stand apart in the source; their conditions may differ.

Columns and labels:
Humanthrombozyten [1] = assay: Induced aggregation of human platelets in vitro (Method 1, platelet-rich plasma, Born aggregometer); assay type: cell-based; details: result in words; Tilsuprost compared with Prostacyclin
Text: Methode 1 - Induzierte Aggregation von Humanthrombozyten in vitro
Gesund erscheinenden männlichen und weiblichen Freiwilligen, die im vorangegangenen Zeitraum von 10 Tagen keine Medikamente eingenommen haben, wird durch vorsichtige Kanülierung der Antekubitalvene Blut entnommen, das sofort mit Natriumzitrat (ad 0,38%) stabilisiert wird. Durch 15minütiges Zentrifugieren bei 140 x g erhält man im Überstand plättchenreiches Plasma (PRP), dessen Thrombozytengehalt im Bereich 2,5 - 3,5·10⁺⁸ /ml (Coulter Counter) liegen soll. Die Plättchenaggregation wird optisch durch Messung der Lichttransmission im Born'schen Aggregometer verfolgt. Das Gesamtvolumen des Testansatzes beträgt 0,25 ml. Die Vorinkubationszeit mit dem Prüfpräparat beträgt 10 min bei 37°C, die Aggregationsinduktion erfolgt sodann mit 2 · 10⁻⁴ mol/l Arachidonsäure oder 1,7 µg/ml Kollagen. Das Prüfpräparat wird an fünf verschiedenen Spendern getestet. Aus den jeweiligen maximalen Aggregationsamplituden werden Dosis-Wirkungskurven erstellt und graphisch die arithmetisch gemittelten ED₅₀ (mol/l)-Werte bestimmt. Die Messungen erfolgen im Zeitraum von 1-6 Stunden nach Blutentnahme.

Humanthrombozyten [2] = assay: Cyclo AMP determination in human platelets (Method 3, 3H-adenine labelling); assay type: cell-based; details: result in words
Description: Methode 3 - Cyclo AMP-Bestimmung in Humanthrombozyten
Die Methode folgt in allen Einzelheiten der Vorschrift in Nature (London) 292 (1981) 364: Statt Kaninchenthrombozyten wurde jedoch menschliches Thrombozytenkonzentrat mit ³H-Adenin bei 20°C für 90 min inkubiert. Das überschüssige Adenin wird, wie in Nature beschrieben, entfernt, die Wirkstoffe (s. Tab. 2) zugesetzt und erneut 5 min (37°C) inkubiert. Das gebildete ³H-cyclo AMP wird in der bekannten Weise abgetrennt und durch Radioaktivitätsmessung quantifiziert.

Structure (SMILES)	Hemmstoffe der Aggregation von Humanthrombozyten (Humanthrombozyten [1])	cyclo AMP-Stimulierung in Humanthrombozyten (Humanthrombozyten [2])
CCCCC[C@H](O)/C=C/[C@@H]1[C@H]2C/C(=C/CCCC(=O)O)O[C@H]2C[C@H]1O [Prostacyclin, reference compound]	äquipotent	–
CCCCCC(O)C=CC1C(O)CC2N=C(SCCCCC(=O)O)CC21 (stereo not drawn) [Tilsuprost]	äquipotent	keine signifikante Stimulierung; also recorded: keine signifikante stimulierende Wirkung
